Laboratory results: patent US10617734B2, “STAT3 and ERK signal pathway inhibitor comprising mogrosides and analogs thereof” (BEIJING UNIVERSITY OF AGRICULTURE, priority 2014, dated 2020)

Experiments:
[1] = tested on: lymphoma U937 cells; test: Cell apoptosis, Annexin V-FITC/PI, flow cytometer; type: cell-based; details: 10 μmol/L, 24 h
Method: (§1) Lymphoma U937 cells, human melanoma A875 cells and leukemia cells K562 in logarithmic growth phase were selected, and after the respective culture with 0 and 10 μmol/L of the mogrosides and analogs thereof (i.e. Mogroside I E1, Mogroside II A2 and mogrol) for 24 h, cells were collected and washed twice with 200 μl of cold PBS, and then the cells were collected again; 100 μl of binding buffer was added for re-suspending the cells, and after the addition of 2 μl of Annexin V-FITC and well mixing, the resulting mixture was placed in dark at room temperature for 10 min, and then 5 μl of propidium iodide (PI) was added and then well mixed; the mixture was placed in dark at room temperature for 10 min, and detected by flow cytometer, and the results are shown in FIGS. 13-15.

[2] = tested on: leukemia cells K562; test: Cell apoptosis, Annexin V-FITC/PI, flow cytometer; type: cell-based, human; details: leukemia cells K562, 10 μmol/L, 24 h
Method: as §1

[3] = tested on: human melanoma A875 cells; test: MTT colorimetric experiment, cell growth inhibition; type: cell-based; details: melanoma A875 cells, 0.1, 1, 10, 100, 200 and 250 μmol/L, MTT after 24 h
Method: (§2) MTT colorimetric experiments were performed after 24 h, respectively: prior to the finish of each experiment, 15 μl of MTT solution in a concentration of 5 mg/ml was added to each well, and the culture was continued in dark at 37° C. for 4 h, then 150 μl of DMSO was added to each well and oscillating in a shaker for 10 min, and then the residue was placed in a microplate reader to detect the optical density OD) at 490 nm, and the inhibition rate was calculated according to the following formula: cell growth inhibition rate (control group OD490—test group OD490)/control group OD490×100%.

[4] = tested on: lymphoma U937 cells; test: as above; type: cell-based; details: U937 cells, 0.1, 1, 10, 100, 200 and 250 μmol/L, MTT after 24 h
Method: as §2

`C[C@H](CC[C@@H](O)C(C)(C)O)[C@H]1CC[C@@]2(C)[C@@H]3CC=C4[C@@H](CC[C@H](O)C4(C)C)[C@]3(C)[C@H](O)C[C@]12C` [mogrol] was tested, and the cell apoptosis [1] was “induce the apoptosis”, the cell apoptosis [2] was “induce the apoptosis” and the “cell growth inhibition rate” value [3] was “inhibitory effect on the proliferation”. For the same compound, the “cell growth inhibition rate” value [4] was “inhibitory effect on the proliferation”.
